The values below come from PMC4441536 (Journal of Medicinal Chemistry, 2015).

For data set [1], the target named is CB1 (h) (Homo sapiens, UniProt P21554).
The target in data set [2] is M3 (h) (Homo sapiens, UniProt P20309).
Data set [3] addresses 5-HT1A (h) (Homo sapiens, UniProt P08908).
Data set [4] can be described thus: physchem.
Data set [5] can be described thus: physchem. As to conditions: D2O.
The conditions of data set [6]: mouse, in vivo; for AUC / Cmax / Terminal Half-Life: 5 mg/kg.
Data set [7] is described as follows: in vivo. The following applies: mouse, 5 mg/kg; for half-life: Terminal Half-Life.
Data set [8] deals with A3 (h) (Homo sapiens, UniProt P0DMS8).
In data set [9] the target is 5-HT3 (h) (Homo sapiens, UniProt P46098).
5-HT3 (h), sequence (P46098 24-478): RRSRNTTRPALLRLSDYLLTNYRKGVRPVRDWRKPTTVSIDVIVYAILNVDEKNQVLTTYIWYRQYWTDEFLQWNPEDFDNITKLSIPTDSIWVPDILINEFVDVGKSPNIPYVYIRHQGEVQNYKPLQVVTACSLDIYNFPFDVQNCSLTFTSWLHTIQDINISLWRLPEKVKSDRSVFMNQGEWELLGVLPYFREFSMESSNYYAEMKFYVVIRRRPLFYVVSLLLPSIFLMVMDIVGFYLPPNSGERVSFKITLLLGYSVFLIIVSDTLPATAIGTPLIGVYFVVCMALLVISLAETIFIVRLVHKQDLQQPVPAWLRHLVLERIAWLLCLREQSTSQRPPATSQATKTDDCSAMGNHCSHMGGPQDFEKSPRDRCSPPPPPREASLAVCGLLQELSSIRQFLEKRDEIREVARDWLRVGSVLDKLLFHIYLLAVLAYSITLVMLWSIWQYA
Data set [10] has as its target B2 (h) (Homo sapiens, UniProt P30411).
The target of data set [11] is NK3 (h) (Homo sapiens, UniProt P29371).
NK3 (h), sequence (P29371 whole entry): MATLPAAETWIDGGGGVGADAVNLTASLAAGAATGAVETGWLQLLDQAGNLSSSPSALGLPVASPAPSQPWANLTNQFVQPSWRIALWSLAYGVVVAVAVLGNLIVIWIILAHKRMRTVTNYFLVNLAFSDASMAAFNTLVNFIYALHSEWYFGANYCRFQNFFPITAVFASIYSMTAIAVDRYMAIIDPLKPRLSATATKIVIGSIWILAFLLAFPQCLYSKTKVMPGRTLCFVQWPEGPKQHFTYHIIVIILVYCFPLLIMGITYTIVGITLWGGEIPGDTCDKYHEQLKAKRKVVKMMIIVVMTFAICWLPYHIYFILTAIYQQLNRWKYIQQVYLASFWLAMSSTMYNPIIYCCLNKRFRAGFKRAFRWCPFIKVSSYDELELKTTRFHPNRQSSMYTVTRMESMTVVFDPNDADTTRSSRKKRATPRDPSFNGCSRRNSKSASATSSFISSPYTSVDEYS
In data set [12] the target is D1 (h) (Homo sapiens, UniProt P21728).
D1 (h), sequence (P21728 whole entry): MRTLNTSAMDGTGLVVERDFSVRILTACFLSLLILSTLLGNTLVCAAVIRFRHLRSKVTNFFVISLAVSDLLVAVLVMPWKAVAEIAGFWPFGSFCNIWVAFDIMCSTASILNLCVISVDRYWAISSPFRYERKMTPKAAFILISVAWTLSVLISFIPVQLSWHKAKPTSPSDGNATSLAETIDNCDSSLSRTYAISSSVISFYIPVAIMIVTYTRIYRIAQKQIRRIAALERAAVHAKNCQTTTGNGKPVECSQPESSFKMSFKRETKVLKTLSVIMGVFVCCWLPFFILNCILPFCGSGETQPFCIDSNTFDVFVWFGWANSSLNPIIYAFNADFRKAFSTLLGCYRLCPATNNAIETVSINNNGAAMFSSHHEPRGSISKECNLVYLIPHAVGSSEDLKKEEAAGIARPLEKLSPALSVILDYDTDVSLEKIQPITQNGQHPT
In data set [13] the target is NK2 (h) (Homo sapiens, UniProt P21452).
The target in data set [14] is beta 1 (h) (Homo sapiens, UniProt P08588).
Data set [15] concerns the target H2 (h) (Homo sapiens, UniProt P25021).
For data set [16], the target named is 5-HT2A (h) (Homo sapiens, UniProt P28223).
The target of data set [17] is MT1 (ML1A) (h) (Homo sapiens, UniProt P48039).
Data set [18] has as its target M2 (h) (Homo sapiens, UniProt P08172).
Data set [19] has as its target AT1 (h) (Homo sapiens, UniProt P30556).
Data set [20] addresses 5-HT7 (h) (Homo sapiens, UniProt P34969).
Data set [21] concerns the target 5-HT1B (Rattus norvegicus, UniProt P28564).
The target in data set [22] is 5-HT6 (h) (Homo sapiens, UniProt P50406).
Data set [23] concerns the target 5-HT5a (h) (Homo sapiens, UniProt P47898).
Data set [24] deals with D2S (h) (Homo sapiens, UniProt P14416).
D2S (h), sequence (P14416 1-414 isoform P14416-2): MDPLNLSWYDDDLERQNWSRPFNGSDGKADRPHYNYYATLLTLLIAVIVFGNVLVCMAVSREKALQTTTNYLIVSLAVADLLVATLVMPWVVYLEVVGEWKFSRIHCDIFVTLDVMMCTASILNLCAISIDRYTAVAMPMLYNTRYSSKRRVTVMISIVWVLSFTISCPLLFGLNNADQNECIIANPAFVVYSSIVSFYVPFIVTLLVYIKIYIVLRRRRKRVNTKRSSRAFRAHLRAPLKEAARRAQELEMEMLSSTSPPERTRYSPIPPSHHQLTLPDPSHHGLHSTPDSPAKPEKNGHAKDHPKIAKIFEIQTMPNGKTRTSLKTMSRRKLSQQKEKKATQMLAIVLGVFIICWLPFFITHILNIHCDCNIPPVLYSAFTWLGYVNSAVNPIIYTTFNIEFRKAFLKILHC
[25] abbreviates: iv, IV 5 mg/kg, individual animals 2, 3, 4.
The mark [26] stands for this setting: po, PO 5 mg/kg, individual animals 6, 7, 8.

In brackets after ≈: the same amount, converted by molar mass. Several values for one entry are separate records, joined by “and”; a condition that tells them apart may be missing. Equal entries are not always repeated. Where two headings read alike, the source gives them in different places.

5-HT1A (h), sequence (P08908 whole entry): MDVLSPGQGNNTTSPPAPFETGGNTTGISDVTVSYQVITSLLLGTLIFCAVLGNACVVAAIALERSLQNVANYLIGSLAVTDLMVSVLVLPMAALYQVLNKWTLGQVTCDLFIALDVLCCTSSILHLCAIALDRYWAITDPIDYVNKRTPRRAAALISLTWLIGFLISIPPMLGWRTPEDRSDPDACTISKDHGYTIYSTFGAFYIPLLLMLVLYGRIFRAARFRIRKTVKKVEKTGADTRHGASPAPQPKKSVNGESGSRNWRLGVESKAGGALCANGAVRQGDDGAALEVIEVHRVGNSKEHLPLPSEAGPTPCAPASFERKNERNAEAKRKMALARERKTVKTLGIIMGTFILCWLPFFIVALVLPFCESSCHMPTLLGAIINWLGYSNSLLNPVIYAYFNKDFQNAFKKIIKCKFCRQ
B2 (h), sequence (P30411 whole entry): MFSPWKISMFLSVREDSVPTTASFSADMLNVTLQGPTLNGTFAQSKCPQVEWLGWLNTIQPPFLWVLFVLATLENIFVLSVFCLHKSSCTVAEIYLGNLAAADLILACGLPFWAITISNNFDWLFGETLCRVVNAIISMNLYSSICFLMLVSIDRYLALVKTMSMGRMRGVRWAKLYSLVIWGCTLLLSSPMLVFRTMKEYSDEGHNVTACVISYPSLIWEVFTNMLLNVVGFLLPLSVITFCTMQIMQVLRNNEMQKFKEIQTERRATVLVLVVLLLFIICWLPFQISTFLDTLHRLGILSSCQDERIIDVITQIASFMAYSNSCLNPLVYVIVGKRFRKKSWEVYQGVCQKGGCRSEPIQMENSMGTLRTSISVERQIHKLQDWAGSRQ
H2 (h), sequence (P25021 whole entry): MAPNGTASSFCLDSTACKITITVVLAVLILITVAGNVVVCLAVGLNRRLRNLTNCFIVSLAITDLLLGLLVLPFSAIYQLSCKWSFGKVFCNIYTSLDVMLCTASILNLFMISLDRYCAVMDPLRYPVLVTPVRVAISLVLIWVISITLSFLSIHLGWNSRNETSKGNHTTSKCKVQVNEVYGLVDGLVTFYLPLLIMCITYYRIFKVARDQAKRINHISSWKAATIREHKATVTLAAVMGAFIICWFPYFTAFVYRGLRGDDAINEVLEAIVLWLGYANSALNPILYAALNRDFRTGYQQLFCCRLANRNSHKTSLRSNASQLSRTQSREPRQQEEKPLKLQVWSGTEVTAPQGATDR
CB1 (h), sequence (P21554 whole entry): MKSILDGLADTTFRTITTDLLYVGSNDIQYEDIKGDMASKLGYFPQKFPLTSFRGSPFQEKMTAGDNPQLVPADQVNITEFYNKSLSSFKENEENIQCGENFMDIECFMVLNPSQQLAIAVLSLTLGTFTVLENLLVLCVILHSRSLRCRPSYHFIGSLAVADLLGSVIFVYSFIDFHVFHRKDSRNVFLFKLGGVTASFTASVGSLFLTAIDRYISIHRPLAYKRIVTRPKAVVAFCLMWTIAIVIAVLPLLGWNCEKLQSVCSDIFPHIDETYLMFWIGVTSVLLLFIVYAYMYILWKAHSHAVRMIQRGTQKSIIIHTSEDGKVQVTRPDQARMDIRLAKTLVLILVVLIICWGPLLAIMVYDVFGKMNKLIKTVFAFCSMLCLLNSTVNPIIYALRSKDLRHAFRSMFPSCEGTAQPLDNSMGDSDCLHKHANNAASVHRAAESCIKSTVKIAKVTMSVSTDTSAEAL
M3 (h), sequence (P20309 whole entry): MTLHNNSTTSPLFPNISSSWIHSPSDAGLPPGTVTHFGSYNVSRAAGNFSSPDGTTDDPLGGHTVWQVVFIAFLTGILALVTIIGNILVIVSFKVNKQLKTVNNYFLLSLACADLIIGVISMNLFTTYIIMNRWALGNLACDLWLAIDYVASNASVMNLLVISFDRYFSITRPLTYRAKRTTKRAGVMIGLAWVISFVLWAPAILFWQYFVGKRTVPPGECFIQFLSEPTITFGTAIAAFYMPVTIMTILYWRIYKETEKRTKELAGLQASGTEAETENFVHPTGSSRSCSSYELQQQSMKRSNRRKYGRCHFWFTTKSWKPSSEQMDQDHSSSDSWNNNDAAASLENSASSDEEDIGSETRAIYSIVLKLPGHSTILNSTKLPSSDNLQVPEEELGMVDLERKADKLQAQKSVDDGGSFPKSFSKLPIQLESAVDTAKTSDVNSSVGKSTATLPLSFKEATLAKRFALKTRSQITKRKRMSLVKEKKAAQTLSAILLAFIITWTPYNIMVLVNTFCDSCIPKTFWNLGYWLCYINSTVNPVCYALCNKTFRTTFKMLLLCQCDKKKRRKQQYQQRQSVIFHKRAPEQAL
M2 (h), sequence (P08172 whole entry): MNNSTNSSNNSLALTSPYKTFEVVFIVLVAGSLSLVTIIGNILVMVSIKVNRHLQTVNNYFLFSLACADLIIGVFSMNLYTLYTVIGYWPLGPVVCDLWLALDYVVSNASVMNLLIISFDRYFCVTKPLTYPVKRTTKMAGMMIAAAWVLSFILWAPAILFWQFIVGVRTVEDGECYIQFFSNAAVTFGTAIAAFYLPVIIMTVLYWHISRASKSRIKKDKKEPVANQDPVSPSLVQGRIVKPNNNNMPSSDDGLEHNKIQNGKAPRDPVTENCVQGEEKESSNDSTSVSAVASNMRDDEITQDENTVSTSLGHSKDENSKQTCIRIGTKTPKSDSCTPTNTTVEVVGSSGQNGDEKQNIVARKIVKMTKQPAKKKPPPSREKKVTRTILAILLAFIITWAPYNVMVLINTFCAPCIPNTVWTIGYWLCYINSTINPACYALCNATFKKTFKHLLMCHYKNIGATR
5-HT5a (h), sequence (P47898 whole entry): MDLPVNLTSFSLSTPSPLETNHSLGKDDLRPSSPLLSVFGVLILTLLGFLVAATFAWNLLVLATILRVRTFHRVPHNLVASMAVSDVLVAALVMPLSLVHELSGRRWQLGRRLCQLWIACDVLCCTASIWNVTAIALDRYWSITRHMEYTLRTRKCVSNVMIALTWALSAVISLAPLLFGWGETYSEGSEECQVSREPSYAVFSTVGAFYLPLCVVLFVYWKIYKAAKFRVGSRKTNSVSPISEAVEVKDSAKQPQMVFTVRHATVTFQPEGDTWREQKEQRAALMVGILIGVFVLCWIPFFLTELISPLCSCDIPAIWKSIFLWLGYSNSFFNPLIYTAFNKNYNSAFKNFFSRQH

`CCCCCCC(C)(C)c1ccc([C@@H]2C[C@H](O)CC[C@H]2CCCO)c(O)c1` [CP 55940]: the “nH Ref” value in [1] is recorded as 0.8.
For the compound `C[N+]1(C)CCC(OC(=O)C(c2ccccc2)c2ccccc2)CC1.[I-]` [Compound 4-DAMP, 4-DAMP], the “nH Ref” value in data set [2] is reported as 1.3.
For `CCCN(CCC)C1CCc2cccc(O)c2C1` (centres unmarked) [Compound 8-OH-DPAT, 8-OH-DPAT], the “nH Ref” value in data set [3] stood at 1.2.
With `Cn1cc(CCn2cnc(-c3cnn(C)c3)c2-c2ccc(C#N)cc2)cn1` [Compound 13, 4-(4-(1-methyl-1H-pyrazol-4-yl)-1-(2-(1-methyl-1H-pyrazol-4-yl)ethyl)-1H-imidazol-5-yl)benzonitrile], the logD – broadly, the decadic logarithm of the distribution of all forms, ionised or not, between an organic phase and buffer at a given pH – in data set [4] is 1.05. In [5], the concentration in solution (solubility at 24 h) came to 25 mM (≈ 8940 µg/mL). For the same compound, the volume of distribution result in [6] is listed as “moderate”. For the same compound, in data set [6] (iv), the AUC (as a rule, concentration integrated over time) is 5.875 µM·h and 7.614 µM·h; the Cmax (as a rule, the maximum level reached in the sampled fluid or tissue) is 10.4 µM and 13.8 µM; the “Terminal Half-Life” value is 59.8 min and 56.6 min. Besides, in data set [6] (po), the AUC was 5.161 µM·h and 4.542 µM·h; the Cmax was 6.12 µM and 4.88 µM; the “Terminal Half-Life” value was 68.4 min and 49.3 min. In data set [7] (setting [25]), the peak level (Cmax) was 9.53 µM and the half-life (as a rule, the time in which the quantity being followed falls by half) is 50.9 min. In [7] (iv, Tmax, IV 5 mg/kg, individual animals 2, 3, 4), the Tmax – broadly, the time from dosing to the highest level – came to 4.98 min. Also, the bioavailability – broadly, dose-corrected exposure relative to a reference, in per cent – in [7] (po) stood at 70%. In data set [7] (setting [26]), this compound gave a Cmax of 6.46 µM and a half-life of 45.4 min.
On to `CNC(=O)[C@H]1O[C@@H](n2cnc3c(NCc4cccc(I)c4)ncnc32)[C@H](O)[C@@H]1O` [IB-MECA], for which, in data set [8], the “nH Ref” value worked out at 0.7.
In the case of `CN1[C@@H]2CC[C@H]1C[C@@H](OC(=O)c1cc(Cl)cc(Cl)c1)C2` [MDL 72222], the “nH Ref” value in data set [9] is listed as 1.1.
As to `N=C(N)NCCC[C@@H](N)C(=O)N[C@@H](CCCNC(=N)N)C(=O)N1CCC[C@H]1C(=O)N1C[C@H](O)C[C@H]1C(=O)NCC(=O)N[C@@H](Cc1ccccc1)C(=O)N[C@@H](CO)C(=O)N[C@H](Cc1ccccc1)C(=O)N[C@@H](Cc1ccccc1)C(=O)N[C@@H](CCCNC(=N)N)C(=O)O` [NPC 567], the “nH Ref” value in data set [10] is given as 0.8.
Take `CC[C@H](NC(=O)c1c(C)c(-c2ccccc2)nc2ccccc12)c1ccccc1` [SB 222200]: the “nH Ref” value in [11] is recorded as 1.0.
In the case of `CN1CCc2cc(Cl)c(O)cc2[C@@H](c2ccccc2)C1` [SCH 23390], the “nH Ref” value in [12] is listed as 0.9.
For `CCCC[C@H](NC(=O)[C@H](CC(C)C)NC(=O)CNC(=O)[C@@H](NC(=O)[C@H](Cc1ccccc1)NC(=O)[C@H](CO)NC(=O)[C@@H](N)CC(=O)O)C(C)C)C(N)=O` [[Nleu10]-NKA (4-10)], the “nH Ref” value in data set [13] is reported as 0.9.
In the case of `CC(C)NCC(O)COc1ccc(CC(N)=O)cc1` (centres unmarked) [atenolol], the “nH Ref” value in data set [14] came to 0.9.
As for `CN/C(=N/CCSCc1nc[nH]c1C)NC#N` [cimetidine], in data set [15], the “nH Ref” value was found to be 0.9.
Take `O=C(c1ccc(F)cc1)C1CCN(CCn2c(=O)[nH]c3ccccc3c2=O)CC1` [ketanserin]: in data set [16], the “nH Ref” value was 1.2.
Take `COc1ccc2[nH]cc(CCNC(C)=O)c2c1` [melatonin]: the “nH Ref” value in data set [17] is 1.3.
With `COc1ccccc1CNCCCCCCNCCCCCCCCNCCCCCCNCc1ccccc1OC` [methoctramine], the “nH Ref” value in data set [18] is 0.8.
Consider `CNCC(=O)N[C@@H](CCCN=C(N)N)C(=O)N[C@H](C(=O)N[C@@H](Cc1ccc(O)cc1)C(=O)N[C@H](C(=O)N[C@@H](Cc1cnc[nH]1)C(=O)N1CCC[C@H]1C(=O)N[C@@H](C)C(=O)O)C(C)C)C(C)C` [saralasin], for which the “nH Ref” value in data set [19] was determined as 0.9.
Regarding `NCCc1c[nH]c2ccc(O)cc12` [serotonin], the “nH Ref” value in data set [20] is listed as 0.6; in [21], 1.2; in data set [22], 0.8; in data set [23] it was 0.7.
In the case of (+)butaclamol, in data set [24], the “nH Ref” value is listed as 1.3.
